According to paper PMC4284702, “Cloning and Characterization of Farnesyl Diphosphate Synthase Gene Involved in Triterpenoids Biosynthesis from Poria cocos” (International Journal of Molecular Sciences, 2014):

Molecular target: rPc-FPS (Pc-FPS, recombinant farnesyl diphosphate synthase of Poria cocos) (Wolfiporia cocos, UniProt K7DW87)
Assay: GC of farnesol after acid phosphatase hydrolysis of product FPP
Format: biochemical
Conditions: 2 mM MgCl2, 5 mM DTT, 50 mM MOPS pH 7.5, 30 °C, 3 h

rPc-FPS (Pc-FPS, recombinant farnesyl diphosphate synthase of Poria cocos), sequence (K7DW87 entry or part of it): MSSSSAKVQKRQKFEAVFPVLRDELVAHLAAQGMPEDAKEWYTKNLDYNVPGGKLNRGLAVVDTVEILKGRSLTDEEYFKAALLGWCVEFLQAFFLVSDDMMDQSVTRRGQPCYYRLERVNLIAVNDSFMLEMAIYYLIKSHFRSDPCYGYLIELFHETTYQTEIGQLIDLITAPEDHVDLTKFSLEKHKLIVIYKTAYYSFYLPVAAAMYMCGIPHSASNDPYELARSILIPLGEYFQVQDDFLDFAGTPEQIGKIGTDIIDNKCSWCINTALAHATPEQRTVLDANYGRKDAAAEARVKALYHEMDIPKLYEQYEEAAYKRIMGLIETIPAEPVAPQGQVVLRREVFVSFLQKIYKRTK

SMILES | GC of farnesol after acid phosphatase hydrolysis of product FPP (50 uM GPP, co-substrate 50 uM IPP) | GC of farnesol after acid phosphatase hydrolysis of product FPP (50 uM IPP, co-substrate 50 uM GPP)
CC(C)=CCC/C(C)=C/COP(=O)(O)OP(=O)(O)O [GPP] | the purified rPc-FPS was used to catalyze GPP with IPP to produce FPP | –
C=C(C)CCOP(=O)(O)OP(=O)(O)O [IPP] | – | rPc-FPS could catalyze the formation of FPP from GPP and IPP
